Read-outs that look alike come from different tables or passages of the source.
Assays:
[1] = system: SAOS2/B10 cells; assay: Cellular proliferation, EdU incorporation (Click-it EdU); assay type: cell-based
From the text: 3. […]
Ethynyl-2′-deoxyuridine; ThermoFisher Scientific) assay. […]

[2] = system: diabetic Yucatan minipigs; assay: Glucose lowering after s.c. bolus in type 1 diabetic Yucatan minipigs (PD); assay type: in vivo, minipig; conditions: individual animal
Method: Data is presented as mean ± SEM, n = 6 animals per dose group. […] Source data are provided as a Source Data file.
IRPAs were characterized in a Type 1 diabetic Yucatan minipig model. Briefly, male Yucatan minipigs, from Sinclair, were rendered Type 1 diabetic by Alloxan injections following a proprietary protocol developed by Sinclair Research Center (Auxvasse, MO). […] Minipigs used in these studies ranged from 10 months to 3 years old, had plasma glucose levels of approximately 300–400 mg/dL and were instrumented with two Jugular vein vascular access ports (VAP).
IRPAs were administered to diabetic minipigs by subcutaneous injection. […] After dosing, sampling continued for 18 h.

In the case of IGF-1: insulin-like growth factor 1, the EC50 ([1]; geometric mean of all independent titrations, EdU incorporation, four-parameter fit, read-out: Cell Proliferation Assay Total Ave EC50) is reported as 0.149 nM, the EC50 ([1]; titration 2, read-out: Cell Proliferation Assay EC50-2) is reported as 0.397 nM and the EC50 ([1]; titration 3, read-out: Cell Proliferation Assay EC50-3) is reported as 0.154 nM. For the same substance, the EC50 ([1]; titration 4, read-out: Cell Proliferation Assay EC50-4) was 0.0819 nM, the EC50 ([1]; titration 5, read-out: Cell Proliferation Assay EC50-5) was 0.103 nM and the EC50 ([1]; titration 6, read-out: Cell Proliferation Assay EC50-6) was 0.0688 nM. For the same substance, the EC50 ([1]; titration 7, read-out: Cell Proliferation Assay EC50-7) was 0.0568 nM, the EC50 ([1]; titration 8, read-out: Cell Proliferation Assay EC50-8) was 0.842 nM and the EC50 ([1]; titration 9, read-out: Cell Proliferation Assay EC50-9) was 0.438 nM. The EC50 ([1]; titration 10, read-out: Cell Proliferation Assay EC50-10) was 0.153 nM.
“Tresiba: insulin Degludec from Novo Nordisk, a lipidated insulin” gave a ΔGlucose ([2]; 2 h post s.c. dose, replicate 1) of -38 mg/dL, a ΔGlucose ([2]; 2 h post s.c. dose, replicate 2) of -21 mg/dL and a ΔGlucose ([2]; 2 h post s.c. dose, replicate 3) of 5 mg/dL. It also gave a ΔGlucose ([2]; 2 h post s.c. dose, replicate 4) of 79 mg/dL, a ΔGlucose ([2]; 2 h post s.c. dose, replicate 5) of 69 mg/dL and a ΔGlucose ([2]; 2 h post s.c. dose, replicate 6) of -28 mg/dL. It also gave a ΔGlucose ([2]; 2 h post s.c. dose, replicate 7) of 35 mg/dL, a ΔGlucose ([2]; 2 h post s.c. dose, replicate 8) of -20 mg/dL and a ΔGlucose ([2]; 2 h post s.c. dose, replicate 9) of 40 mg/dL. For the same substance, the ΔGlucose ([2]; 2 h post s.c. dose, replicate 10) was 8 mg/dL, the ΔGlucose ([2]; 2 h post s.c. dose, replicate 11) was -118 mg/dL and the ΔGlucose ([2]; 2 h post s.c. dose, replicate 12) was 93 mg/dL. It also gave a ΔGlucose ([2]; 2 h post s.c. dose, replicate 13) of -13 mg/dL, a ΔGlucose ([2]; 2 h post s.c. dose, replicate 14) of 18 mg/dL and a ΔGlucose ([2]; 2 h post s.c. dose, replicate 15) of -36 mg/dL. The ΔGlucose ([2]; 2 h post s.c. dose, replicate 16) was 58 mg/dL, the ΔGlucose ([2]; 2 h post s.c. dose, replicate 17) was -126 mg/dL and the ΔGlucose ([2]; 2 h post s.c. dose, replicate 18) was -12 mg/dL. It also gave a ΔGlucose ([2]; 2 h post s.c. dose, replicate 19) of -60 mg/dL, a ΔGlucose ([2]; 3 h post s.c. dose, replicate 1) of -67 mg/dL and a ΔGlucose ([2]; 3 h post s.c. dose, replicate 2) of -79 mg/dL. The ΔGlucose ([2]; 3 h post s.c. dose, replicate 3) was -1 mg/dL, the ΔGlucose ([2]; 3 h post s.c. dose, replicate 4) was 32 mg/dL and the ΔGlucose ([2]; 3 h post s.c. dose, replicate 5) was 97 mg/dL. For the same substance, the ΔGlucose ([2]; 3 h post s.c. dose, replicate 6) was -58 mg/dL, the ΔGlucose ([2]; 3 h post s.c. dose, replicate 7) was 20 mg/dL and the ΔGlucose ([2]; 3 h post s.c. dose, replicate 8) was -73 mg/dL. The ΔGlucose ([2]; 3 h post s.c. dose, replicate 9) was 97 mg/dL, the ΔGlucose ([2]; 3 h post s.c. dose, replicate 10) was -61 mg/dL and the ΔGlucose ([2]; 3 h post s.c. dose, replicate 11) was -233 mg/dL. It also gave a ΔGlucose ([2]; 3 h post s.c. dose, replicate 12) of -9 mg/dL, a ΔGlucose ([2]; 3 h post s.c. dose, replicate 13) of -76 mg/dL and a ΔGlucose ([2]; 3 h post s.c. dose, replicate 14) of -2 mg/dL. The ΔGlucose ([2]; 3 h post s.c. dose, replicate 15) was -89 mg/dL, the ΔGlucose ([2]; 3 h post s.c. dose, replicate 16) was 57 mg/dL and the ΔGlucose ([2]; 3 h post s.c. dose, replicate 17) was -188 mg/dL. For the same substance, the ΔGlucose ([2]; 3 h post s.c. dose, replicate 18) was -49 mg/dL, the ΔGlucose ([2]; 3 h post s.c. dose, replicate 19) was -86 mg/dL and the ΔGlucose ([2]; 4 h post s.c. dose, replicate 1) was -114 mg/dL. It also gave a ΔGlucose ([2]; 4 h post s.c. dose, replicate 2) of -145 mg/dL, a ΔGlucose ([2]; 4 h post s.c. dose, replicate 3) of -76 mg/dL and a ΔGlucose ([2]; 4 h post s.c. dose, replicate 4) of 21 mg/dL. It also gave a ΔGlucose ([2]; 4 h post s.c. dose, replicate 5) of 89 mg/dL, a ΔGlucose ([2]; 4 h post s.c. dose, replicate 6) of -90 mg/dL and a ΔGlucose ([2]; 4 h post s.c. dose, replicate 7) of -30 mg/dL. It also gave a ΔGlucose ([2]; 4 h post s.c. dose, replicate 8) of -110 mg/dL, a ΔGlucose ([2]; 4 h post s.c. dose, replicate 9) of 88 mg/dL and a ΔGlucose ([2]; 4 h post s.c. dose, replicate 10) of -83 mg/dL. The ΔGlucose ([2]; 4 h post s.c. dose, replicate 11) was -283 mg/dL, the ΔGlucose ([2]; 4 h post s.c. dose, replicate 12) was -105 mg/dL and the ΔGlucose ([2]; 4 h post s.c. dose, replicate 13) was -142 mg/dL. The ΔGlucose ([2]; 4 h post s.c. dose, replicate 14) was -49 mg/dL, the ΔGlucose ([2]; 4 h post s.c. dose, replicate 15) was -147 mg/dL and the ΔGlucose ([2]; 4 h post s.c. dose, replicate 16) was 24 mg/dL. It also gave a ΔGlucose ([2]; 4 h post s.c. dose, replicate 17) of -217 mg/dL, a ΔGlucose ([2]; 4 h post s.c. dose, replicate 19) of -118 mg/dL and a ΔGlucose ([2]; 5 h post s.c. dose, replicate 1) of -180 mg/dL. The ΔGlucose ([2]; 5 h post s.c. dose, replicate 2) was -224 mg/dL, the ΔGlucose ([2]; 5 h post s.c. dose, replicate 3) was -181 mg/dL and the ΔGlucose ([2]; 5 h post s.c. dose, replicate 4) was 9 mg/dL. It also gave a ΔGlucose ([2]; 5 h post s.c. dose, replicate 5) of 29 mg/dL, a ΔGlucose ([2]; 5 h post s.c. dose, replicate 6) of -129 mg/dL and a ΔGlucose ([2]; 5 h post s.c. dose, replicate 7) of -47 mg/dL. For the same substance, the ΔGlucose ([2]; 5 h post s.c. dose, replicate 8) was -151 mg/dL, the ΔGlucose ([2]; […] post s.c. dose, replicate 4) was 27 mg/dL and the ΔGlucose ([2]; […] post s.c. dose, replicate 12) was -48 mg/dL.

Source: PMC8854621, “Functionally selective signaling and broad metabolic benefits by novel insulin receptor partial agonists” (Nature Communications, 2022)
